pIC50: −log10 of the molar value. Values belong to the compound of their own block, whether it stands above or below them.
Target: monoclonal antibody Br-3 (IgG1, kappa; hybridoma ATCC deposit)
Test: competition ELISA (c-ELISA), specificity of antibody for halogenated deoxyuridines
Type: binding, mouse (SJL/Jax)
Description: A competition enzyme-linked immunosorbent assay (c-ELISA) wa developed to assess the specificity of the antibody for halogenated deoxyuridines by the method of Stanker, et al. (1986) described previously. The competition ELISA data was normalized using 100% activity as the optical density in wells in which antibody was bound to the solid phase antigen (BSA-hapten) in the absence of any competitor. The test wells, each containing different amounts of competitor, were normalized to the 100% activity wells. Percent inhibition was calculated by subtracting the normalized percent binding activity from 100. A smaller I50 value indicates a higher relative affinity of the antibody for the compound. I50 values were estimated graphically from competition ELISA data. When 50% inhibition could not be attained, the value of the highest level of competitor tested is reported. Competition binding data for antibodies reactive with brominated nucleoside analogs are shown in FIG. 1, and the values represent the averages from at least 12 independent assays.
The concentration of IdUMP which causes a 50% binding inhibition to monoclonal antibody Br-3 is 100 times greater for IdUMP than with BrdUMP.

Compound: O=c1[nH]c(=O)n([C@H]2C[C@H](O)[C@@H](COP(=O)(O)O)O2)cc1F [fluorinated deoxyuridine analog, 5-fluoro-2'-deoxyuridine-5-monophosphate]
Br-3 binding (competition ELISA) (compared with the iodinated analog, FIG. 1): comparable to that of the iodinated analog

pIC50 (50% inhibition not attained at the highest level of competitor tested, read-out: concentration for 50% binding inhibition (I50)): < 4.00
Compound: Cc1cn([C@H]2C[C@H](O)[C@@H](COP(=O)(O)O)O2)c(=O)[nH]c1=O [dTMP, deoxythymidine-5-monophosphate]

concentration which causes a 50% binding inhibition (I50), relative to BrdUMP (I50 of IdUMP compared with I50 of BrdUMP, FIG. 1, averages of at least 12 assays): 100 times
Compound: O=c1[nH]c(=O)n([C@H]2C[C@H](O)[C@@H](COP(=O)(O)O)O2)cc1I [IdUMP, 5-iodo-2'-deoxyuridine-5-monophosphate]

— patent US5053336A, “Monoclonal antibodies for the separate detection of halodeoxyuridines and method for their use” (Regents of the University of California, priority 1989, dated 1991)
